In PubChem BioAssay (NCI):
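Test compounds were applied to cells in 96-well plates for 48 hours at 5 doses. TGI: total growth inhibition.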

Key:
Experiment in all cases: DTP human tumour cell line panel, 48 h
A549 NSCLC = tested on: A549 NSCLC
786-0 renal = tested on: 786-0 renal
HCT-116 colon = tested on: HCT-116 colon
SK-MEL-5 melanoma = tested on: SK-MEL-5 melanoma
DU-145 prostate = tested on: DU-145 prostate
ACHN renal = tested on: ACHN renal
IGROV1 ovarian = tested on: IGROV1 ovarian
NCI-H522 lung = tested on: NCI-H522 lung
SNB-75 CNS = tested on: SNB-75 CNS

Structure (SMILES): NCc1ccc(-c2ccc(-c3ccc(-c4ccc(CN)s4)s3)s2)s1
- TGI (A549 NSCLC): > 100 µM
- TGI (786-0 renal): > 100 µM
- TGI (HCT-116 colon): > 100 µM
- TGI (SK-MEL-5 melanoma): > 100 µM
- TGI (DU-145 prostate): > 100 µM
- TGI (ACHN renal): > 100 µM
- TGI (IGROV1 ovarian): > 100 µM
- TGI (NCI-H522 lung): > 100 µM
- TGI (SNB-75 CNS): > 100 µM

Structure (SMILES): COC(=O)c1ccccc1C1CN=NC12Cc1ccc3ccccc3c1C2=O (stereo not drawn)
- TGI (A549 NSCLC): > 100 µM
- TGI (786-0 renal): > 100 µM
- TGI (SK-MEL-5 melanoma): > 100 µM
- TGI (DU-145 prostate): > 100 µM
- TGI (ACHN renal): > 100 µM
- TGI (IGROV1 ovarian): > 100 µM
- TGI (NCI-H522 lung): > 100 µM
- TGI (SNB-75 CNS): > 100 µM

Structure (SMILES): CCOC(=O)CC(=O)NC1CC2CCC1(C)C2(C)C (stereo not drawn)
- TGI (A549 NSCLC): > 100 µM
- TGI (786-0 renal): > 100 µM
- TGI (HCT-116 colon): > 100 µM
- TGI (SK-MEL-5 melanoma): > 100 µM
- TGI (DU-145 prostate): > 100 µM
- TGI (ACHN renal): > 100 µM
- TGI (IGROV1 ovarian): > 100 µM
- TGI (SNB-75 CNS): > 100 µM

Structure (SMILES): CC(=O)OCC1OC(On2ccccc2=S)C(OC(C)=O)C(OC(C)=O)C1OC(C)=O (stereo not drawn)
- TGI (A549 NSCLC): > 100 µM
- TGI (786-0 renal): > 100 µM
- TGI (HCT-116 colon): > 100 µM
- TGI (SK-MEL-5 melanoma): > 100 µM
- TGI (DU-145 prostate): > 100 µM
- TGI (ACHN renal): > 100 µM
- TGI (IGROV1 ovarian): > 100 µM
- TGI (NCI-H522 lung): > 100 µM
- TGI (SNB-75 CNS): > 100 µM

Structure (SMILES): Cc1ccc(S(=O)ON2CCC(C(=O)O)(c3ccccc3)CC2)cc1 (stereo not drawn)
- TGI (A549 NSCLC): > 100 µM
- TGI (786-0 renal): > 32.2 µM
- TGI (HCT-116 colon): > 100 µM
- TGI (SK-MEL-5 melanoma): > 100 µM
- TGI (DU-145 prostate): > 100 µM
- TGI (ACHN renal): > 100 µM
- TGI (IGROV1 ovarian): > 100 µM
- TGI (NCI-H522 lung): > 100 µM
- TGI (SNB-75 CNS): > 100 µM

Structure (SMILES): CCC1(C)C=Cc2c(cc(OC)c3c(=O)c4ccccc4n(C)c23)O1 (stereo not drawn)
- TGI (A549 NSCLC): > 10 µM
- TGI (786-0 renal): > 10 µM
- TGI (HCT-116 colon): > 10 µM
- TGI (SK-MEL-5 melanoma): > 10 µM
- TGI (DU-145 prostate): > 10 µM
- TGI (ACHN renal): > 10 µM
- TGI (IGROV1 ovarian): > 10 µM
- TGI (NCI-H522 lung): > 10 µM
- TGI (SNB-75 CNS): > 10 µM

Structure (SMILES): CCOC(=O)c1nc2cc(N3CCOCC3)c(F)cc2[nH]c1=O
- TGI (A549 NSCLC): > 100 µM
- TGI (786-0 renal): > 100 µM
- TGI (HCT-116 colon): > 100 µM
- TGI (SK-MEL-5 melanoma): > 100 µM
- TGI (DU-145 prostate): > 100 µM
- TGI (ACHN renal): > 100 µM
- TGI (IGROV1 ovarian): > 100 µM
- TGI (NCI-H522 lung): > 100 µM
- TGI (SNB-75 CNS): > 100 µM

Structure (SMILES): O=C(NN=C1CCN(Cc2ccccc2)CC1)C(O)(c1ccccc1)c1ccccc1
- TGI (A549 NSCLC): > 100 µM
- TGI (786-0 renal): > 100 µM
- TGI (HCT-116 colon): > 100 µM
- TGI (SK-MEL-5 melanoma): > 100 µM
- TGI (DU-145 prostate): > 100 µM
- TGI (IGROV1 ovarian): > 100 µM
- TGI (SNB-75 CNS): > 100 µM

Structure (SMILES): CCN(CC)CCn1c(C(C)(C)C)nc2ccccc21
- TGI (A549 NSCLC): > 100 µM
- TGI (786-0 renal): > 100 µM
- TGI (HCT-116 colon): > 100 µM
- TGI (DU-145 prostate): > 100 µM
- TGI (ACHN renal): > 100 µM
- TGI (IGROV1 ovarian): > 100 µM
- TGI (NCI-H522 lung): > 100 µM
- TGI (SNB-75 CNS): > 100 µM

Structure (SMILES): CCOC(=O)CN1CCNCCN(CC(=O)OCC)CCNCC1
- TGI (A549 NSCLC): > 100 µM
- TGI (786-0 renal): > 100 µM
- TGI (HCT-116 colon): > 100 µM
- TGI (SK-MEL-5 melanoma): > 100 µM
- TGI (DU-145 prostate): > 100 µM
- TGI (ACHN renal): > 100 µM
- TGI (IGROV1 ovarian): > 100 µM
- TGI (NCI-H522 lung): > 100 µM
- TGI (SNB-75 CNS): > 100 µM

Structure (SMILES): CSc1ccc2c(cc1=O)[C@@H](NC(C)=O)CCc1cc(O)c(O)c(O)c1-2
- TGI (A549 NSCLC): 45 µM
- TGI (786-0 renal): 32.4 µM
- TGI (HCT-116 colon): > 100 µM
- TGI (SK-MEL-5 melanoma): > 100 µM
- TGI (DU-145 prostate): > 100 µM
- TGI (ACHN renal): 46.8 µM
- TGI (IGROV1 ovarian): 32.4 µM
- TGI (NCI-H522 lung): 39.3 µM
- TGI (SNB-75 CNS): 53 µM

Structure (SMILES): CCOC(=O)c1c(C)n(Cc2ccccc2)c(=O)c2ccccc2c(=O)c2c(=O)ccc(=O)c1=2
- TGI (A549 NSCLC): > 100 µM
- TGI (786-0 renal): 75.3 µM
- TGI (HCT-116 colon): 46.8 µM
- TGI (SK-MEL-5 melanoma): > 100 µM
- TGI (DU-145 prostate): > 100 µM
- TGI (ACHN renal): 77.1 µM
- TGI (IGROV1 ovarian): 67.9 µM
- TGI (NCI-H522 lung): 62.8 µM
- TGI (SNB-75 CNS): > 100 µM
